Read-outs that look alike come from different tables or passages of the source.
Legend:
Assay type in all cases: cell-based
[1] = test system: Ba/F3 cells expressing EGFR mutations; test: Cell proliferation assay, Ba/F3 cells expressing EGFR mutations (CellTiter-Glo, 72 hours); conditions: CellTiter-Glo
Outline: (§1)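 Seed Ba/F3 at 5000 cells/well and PC-9 at 500 cells/well (10% FBS RPMI1640); incubate overnight; add compound dilution series; read a G0 plate; incubate; read G3; GI50 from best-fit curve.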

PC-9 = test: Cell proliferation assay, PC-9 cells (CellTiter-Glo, 72 hours); conditions: PC9 cells, CellTiter-Glo, read-out: PC9 GI50
Outline: as §1

A-431 = test: Cell proliferation GI50, A-431 cells (Table 6)
Experimental: [Worded in the source for another cell line; this cell line is reported under the same test.] Ba/F3 cells expressing EGFR mutations were seeded in 384-well plates at 5000 cells/well in RPMI1640 medium containing […]. PC-9 at 500 cells/well was seeded into 384-well plates in RPMI1640 medium with 10% FBS. After overnight incubation, the assay plates were dosed with compounds at a series of concentrations. Alongside dosing the assay plates, the day 0 plate was processed using CellTiter-Glo® Luminescent Cell Viability Assay (Promega) to measure the number of viable cells (G0). The assay plates were further incubated for 72 hours and the number of viable cells (G3) was measured. The percentage of proliferation was calculated as: […]=100×(G3 value of sample well−G0 value)/(G3 value of DMSO control−G0 value). The concentration of compound producing 50% proliferation inhibition (GI50) was further calculated in best-fit curves using XLFit software. N/A=not available.

[2] = BaF3 cells, EGFR DEL19-C797S, read-out: DEL19-C797S/BaF3 GI50
[3] = BaF3 cells, EGFR DEL19-T790-C797S, read-out: DEL19-T790-C797S/BaF3 GI50
[4] = BaF3 cells, EGFR L858R, read-out: L858R/BaF3 GI50
[5] = BaF3 cells, EGFR L858R-C797S, read-out: L858R-C797S/BaF3 GI50
[6] = BaF3 cells, EGFR L858R-T790-C797S, read-out: L858R-T790-C797S/BaF3 GI50
[7] = BaF3 cells, EGFR L858R-T790M, read-out: L858R-T790M/BaF3 GI50
[8] = EGFR DEL19-T790M, read-out: DEL19-T790M GI50
[9] = Homo sapiens, A-431, A-431 cells
[10] = Mus musculus, BaF3, 72 h, BaF3 cells, EGFR DEL19-C797S, read-out: DEL19-C797S/BaF3 GI50
[11] = Mus musculus, BaF3, 72 h, BaF3 cells, EGFR DEL19-T790-C797S, read-out: DEL19-T790-C797S/BaF3 GI50
[12] = Mus musculus, BaF3, 72 h, BaF3 cells, EGFR L858R, read-out: L858R/BaF3 GI50
[13] = Mus musculus, BaF3, 72 h, BaF3 cells, EGFR L858R-C797S, read-out: L858R-C797S/BaF3 GI50
[14] = Mus musculus, BaF3, 72 h, BaF3 cells, EGFR L858R-T790-C797S, read-out: L858R-T790-C797S/BaF3 GI50
[15] = Mus musculus, BaF3, 72 h, BaF3 cells, EGFR L858R-T790M, read-out: L858R-T790M/BaF3 GI50
[16] = Mus musculus, BaF3, 72 h, EGFR DEL19-T790M, read-out: DEL19-T790M GI50

| GI50 [1, 2] [nM] | GI50 [1, 3] [nM] | GI50 [1, 4] [nM] | GI50 [1, 5] [nM] | GI50 [1, 6] [nM] | GI50 [1, 7] [nM] | GI50 [1, 8] [nM] | GI50 (PC-9) [nM] | GI50 (A-431; A-431 cells) [nM] | GI50 (A-431; [9]) [nM] | GI50 [1, 10] [nM] | GI50 [1, 11] [nM] | GI50 [1, 12] [nM] | GI50 [1, 13] [nM] | GI50 [1, 14] [nM] | GI50 [1, 15] [nM] | GI50 [1, 16] [nM] | GI50 (PC-9; Homo sapiens, PC-9, 72 h) [nM] | SMILES |
| --- | --- | --- | --- | --- | --- | --- | --- | --- | --- | --- | --- | --- | --- | --- | --- | --- | --- | --- |
| 936 | 2960 | 754 | 1800 | 882 | 2650 | 2030 | 2330 | 3540 | – | – | – | – | – | – | – | – | – | Cn1ncc2c1OCCN1CC3CCC(C3)(C1)n1c(nc3ccc(N4CCC(N5CC(F)C5)C4)cc31)NC(=O)c1cc-2c(=O)n(C)c1 (single isomer, unassigned) [Example A94A1, 5-[3-(3-Fluoroazetidin-1-yl)pyrrolidin-1-yl]-15,21-dimethyl-23-oxa-2,9,11,15,20,21,26-heptaazaheptacyclo[24.4.1.1^{1,28}.1^{13,17}.0^{2,10}.0^{3,8}.0^{18,22}]tritriaconta-3,5,7,9,13,17(33),18(22),19-octaene-12,16-dione] |
| 966 | 2900 | 372 | 1560 | 874 | 2630 | 1250 | 3090 | – | 4930 | – | – | – | – | – | – | – | – | CN(C)C1CN(c2ccc3nc4n(c3c2)C23CCC(CN(CCOc5c(cnn5C)-c5cc(cn(C)c5=O)C(=O)N4)C2)C3)CC1(F)F (single isomer, unassigned) [Example A99A] |
| – | – | – | – | – | – | – | – | – | 2540 | 77 | 811 | 56 | 63 | 76 | 585 | 788 | 183 | CN(C)CCN(C)c1ccc2nc3n(c2c1)CCN(CC(F)F)CCOc1c(cnn1C)-c1cc(cn(C)c1=O)C(=O)N3 [Example A4, 10-(2,2-Difluoroethyl)-16-{[2-(dimethylamino)ethyl](methyl)amino}-5,26-dimethyl-7-oxa-4,5,10,13,20,22,26-heptaazapentacyclo[22.3.1.0^{2,6}.0^{13,21}.0^{14,19}]octacosa-1(28),2(6),3,14,16,18,20,24-octaene-23,27-dione] |
| – | – | – | – | – | – | – | – | – | 1410 | 279 | 830 | 1050 | 1160 | 976 | 803 | 768 | 424 | CCN1CCOc2c(cnn2C)-c2cc(cn(C)c2=O)C(=O)Nc2nc3ccccc3n2C(C)(C)C1 [Example A7, 10-Ethyl-5,12,12,26-tetramethyl-7-oxa-4,5,10,13,20,22,26-heptaazapentacyclo[22.3.1.0^{2,6}.0^{13,21}.0^{14,19}]octacosa-1(28),2(6),3,14,16,18,20,24-octaene-23,27-dione] |
| – | – | – | – | – | – | – | – | – | 248 | 0.43 | 1.5 | 3 | 2.8 | 2.9 | 9.1 | 3.8 | 7.3 | C[C@@H]1CCCOc2c(cnn2C)-c2cc(cn(C)c2=O)C(=O)Nc2nc3ccc(N4CC5CCN(C)C5C4)cc3n2C1 (some centres unmarked) [Example A32] |

More lines, now with the values behind:

| SMILES | GI50 [1, 2] [nM] | GI50 [1, 3] [nM] | GI50 [1, 4] [nM] | GI50 [1, 5] [nM] | GI50 [1, 6] [nM] | GI50 [1, 7] [nM] | GI50 [1, 8] [nM] | GI50 (PC-9) [nM] | GI50 (A-431; A-431 cells) [nM] | GI50 (A-431; [9]) [nM] | GI50 [1, 10] [nM] | GI50 [1, 11] [nM] | GI50 [1, 12] [nM] | GI50 [1, 13] [nM] | GI50 [1, 14] [nM] | GI50 [1, 15] [nM] | GI50 [1, 16] [nM] | GI50 (PC-9; Homo sapiens, PC-9, 72 h) [nM] |
| --- | --- | --- | --- | --- | --- | --- | --- | --- | --- | --- | --- | --- | --- | --- | --- | --- | --- | --- |
| CN1CCN(C2CCN(c3ccc4nc5n(c4c3)C34CCC(CN(CCOc6c(cnn6C)-c6cc(cn(C)c6=O)C(=O)N5)C3)C4)C2)CC1 (single isomer, unassigned) [Example A80B, 15,21-Dimethyl-5-[3-(4-methylpiperazin-1-yl)pyrrolidin-1-yl]-23-oxa-2,9,11,15,20,21,26-heptaazaheptacyclo[24.4.1.1^{1,28}.1^{13,17}.0^{2,10}.0^{3,8}.0^{18,22}]tritriaconta-3,5,7,9,13,17(33),18(22),19-octaene-12,16-dione] | 0.69 | 1.3 | 0.69 | 0.8 | 2.5 | 2.7 | 1.2 | 3.3 | 483 | – | – | – | – | – | – | – | – | – |
| Cn1ncc2c1OCCN1CC3CCC(C3)(C1)n1c(nc3ccc(N4CCC(N5CC(F)C5)C4)cc31)NC(=O)c1cc-2c(=O)n(C)c1 (single isomer, unassigned) [Example A94A2, 5-[3-(3-Fluoroazetidin-1-yl)pyrrolidin-1-yl]-15,21-dimethyl-23-oxa-2,9,11,15,20,21,26-heptaazaheptacyclo[24.4.1.1^{1,28}.1^{13,17}.0^{2,10}.0^{3,8}.0^{18,22}]tritriaconta-3,5,7,9,13,17(33),18(22),19-octaene-12,16-dione] | 1090 | 3940 | 715 | 1480 | 634 | 2710 | 2100 | 1940 | 1800 | – | – | – | – | – | – | – | – | – |
| Cn1ncc2c1OCCN1CCC(C)(C1)n1c(nc3ccc(N4CCOCC4)cc31)NC(=O)c1cc-2c(=O)n(C)c1 (centres unmarked) [Example A11, 5,13,27-trimethyl-17-(morpholin-4-yl)-7-oxa-4,5,10,14,21,23,27-heptaazahexacyclo[23.3.1.1^{10,13}.0^{2,6}.0^{14,22}.0^{15,20}]triaconta-1(29),2(6),3,15,17,19,21,25-octaene-24,28-dione] | – | – | – | – | – | – | – | – | – | 2610 | 666 | 1750 | 2690 | 2250 | 2150 | 1720 | 1790 | 903 |
| C[C@@H]1CCCOc2c(cnn2C)-c2cc(cn(C)c2=O)C(=O)Nc2nc3ccc(N4CC5CN(C)CC5C4)cc3n2C1 (some centres unmarked) [Example A30] | – | – | – | – | – | – | – | – | – | 719 | 2.3 | 3.6 | 13 | 11 | 13 | 24 | 15 | 17 |
| C[C@@H]1CCCOc2c(cnn2C)-c2cc(cn(C)c2=O)C(=O)Nc2nc3ccc(N4CC5CC4CN5C)cc3n2C1 (some centres unmarked) [Example A31] | – | – | – | – | – | – | – | – | – | 790 | 2.3 | 3.4 | 25 | 10 | 13 | 30 | – | 35 |
| C[C@@H]1CCCOc2c(cnn2C)-c2cc(cn(C)c2=O)C(=O)Nc2nc3ccc(N4CCC5(CCN(C)C5)C4)cc3n2C1 (some centres unmarked) [Example A34] | – | – | – | – | – | – | – | – | – | 587 | 1.1 | 1.3 | 4.6 | 4.2 | 8.9 | 9.8 | 5 | 9.1 |
| C[C@@H]1CCCOc2c(cnn2C)-c2cc(cn(C)c2=O)C(=O)Nc2nc3ccc(N4CC(N5CCOCC5)C4)cc3n2C1 [Example A45] | – | – | – | – | – | – | – | – | – | 245 | 5.1 | 16 | 8.6 | 14 | 9.3 | 29 | 20 | 15 |

— US20260365670A1, “EGFR INHIBITORS AND USES THEREOF” (DIZAL (JIANGSU) PHARMACEUTICAL CO., LTD., priority 2022, published 2026)
